Measured values from patent publication US8076487B2, “Pyridone derivative and herbicide” (Kumiai Chemical Industry Co., Ltd., priority 2006, dated 2011).

Columns and labels:
Assay in all cases: Test Example 1: herbicidal effect by soil application to paddy field
Assay type in all cases: in vivo
Conditions in all cases: paddy field soil application; active ingredient 1,000 g per 1 hectare; wettable powder added dropwise to water surface the day after sowing; examined on the 21st day after application
[1] = system: Japanese bulrush (Scirpus juncoides Roxb.)
Text: (§1) Test Example 1 Test on Herbicidal Effect by Soil Application to Paddy Field In a 100 cm2 plastic pot, paddy field soil was filled. After puddling and leveling, seeds of early watergrass (Echinochloa oryzicola […] (Monochoria vaginalis ([…] Japanese bulrush (Scirpus juncoides Roxb.) were sown, and water was filled to be flooded to a water depth of 3 cm. […] Then, on the 21st day after the application to the plants grew in a greenhouse, the herbicidal effect was examined in accordance with a standard shown in Table 34. [table]

[2] = system: early watergrass (Echinochloa oryzicola Vasing)
Text: as §1

[3] = system: heartshape false pickerelweed (Monochoria vaginalis (Burm.f.) C.Presl)
Text: as §1

Compound | herbicidal effect, Scirpus juncoides Roxb. [1] | herbicidal effect, Echinochloa oryzicola Vasing [2] | herbicidal effect, Monochoria vaginalis (Burm. f.) C. Presl [3]
COCn1c(C(F)(F)F)ccc(C(=O)C2=C(O)CCCC2=O)c1=O [I-30] | 3 (50 to less than 70% of herbicidal effect and crop phytotoxicity) | 3 (50 to less than 70% of herbicidal effect and crop phytotoxicity) | 5 (90% or more of herbicidal effect and crop phytotoxicity)
O=C1CCCC(O)=C1C(=O)c1ccc(C(F)(F)F)n(CS(=O)(=O)C2CCCCC2)c1=O [I-62] | 4 (70 to less than 90% of herbicidal effect and crop phytotoxicity) | 5 (90% or more of herbicidal effect and crop phytotoxicity) | 5 (90% or more of herbicidal effect and crop phytotoxicity)
O=C1CCCC(O)=C1C(=O)c1ccc(C(F)(F)F)n(CS(=O)(=O)CC(F)(F)F)c1=O [I-64] | 5 (90% or more of herbicidal effect and crop phytotoxicity) | 4 (70 to less than 90% of herbicidal effect and crop phytotoxicity) | 5 (90% or more of herbicidal effect and crop phytotoxicity)
COc1cccc(-n2c(C(F)(F)F)ccc(C(=O)C3=C(O)CCCC3=O)c2=O)c1 [I-77] | 5 (90% or more of herbicidal effect and crop phytotoxicity) | 5 (90% or more of herbicidal effect and crop phytotoxicity) | 5 (90% or more of herbicidal effect and crop phytotoxicity)
O=C1CCCC(O)=C1C(=O)c1ccc(C(F)(F)F)n(-c2ccc(NS(=O)(=O)C(F)(F)F)cc2)c1=O [I-97] | 4 (70 to less than 90% of herbicidal effect and crop phytotoxicity) | 4 (70 to less than 90% of herbicidal effect and crop phytotoxicity) | 5 (90% or more of herbicidal effect and crop phytotoxicity)
O=C1CCCC(O)=C1C(=O)c1ccc(C(F)(F)F)n(Cc2ccccc2[N+](=O)[O-])c1=O [I-115] | 5 (90% or more of herbicidal effect and crop phytotoxicity) | 5 (90% or more of herbicidal effect and crop phytotoxicity) | 5 (90% or more of herbicidal effect and crop phytotoxicity)
O=C1CCCC(O)=C1C(=O)c1ccc(C(F)(F)F)n(Cc2ccc([N+](=O)[O-])cc2)c1=O [I-117] | 5 (90% or more of herbicidal effect and crop phytotoxicity) | 5 (90% or more of herbicidal effect and crop phytotoxicity) | 5 (90% or more of herbicidal effect and crop phytotoxicity)
COc1ccccc1Cn1c(C(F)(F)F)ccc(C(=O)C2=C(O)CCCC2=O)c1=O [I-120] | 5 (90% or more of herbicidal effect and crop phytotoxicity) | 5 (90% or more of herbicidal effect and crop phytotoxicity) | 5 (90% or more of herbicidal effect and crop phytotoxicity)
COc1cccc(Cn2c(C(F)(F)F)ccc(C(=O)C3=C(O)CCCC3=O)c2=O)c1 [I-121] | 5 (90% or more of herbicidal effect and crop phytotoxicity) | 5 (90% or more of herbicidal effect and crop phytotoxicity) | 5 (90% or more of herbicidal effect and crop phytotoxicity)
COc1ccc(Cn2c(C(F)(F)F)ccc(C(=O)C3=C(O)CCCC3=O)c2=O)cc1 [I-122] | 5 (90% or more of herbicidal effect and crop phytotoxicity) | 5 (90% or more of herbicidal effect and crop phytotoxicity) | 5 (90% or more of herbicidal effect and crop phytotoxicity)
CS(=O)(=O)c1ccc(Cn2c(C(F)(F)F)ccc(C(=O)C3=C(O)CCCC3=O)c2=O)cc1 [I-123] | 5 (90% or more of herbicidal effect and crop phytotoxicity) | 5 (90% or more of herbicidal effect and crop phytotoxicity) | 5 (90% or more of herbicidal effect and crop phytotoxicity)
CCCCCCNn1c(C(F)(F)F)ccc(C(=O)C2=C(O)CCCC2=O)c1=O [I-166] | 5 (90% or more of herbicidal effect and crop phytotoxicity) | 5 (90% or more of herbicidal effect and crop phytotoxicity) | 5 (90% or more of herbicidal effect and crop phytotoxicity)
CCCCN(CCCC)n1c(C(F)(F)F)ccc(C(=O)C2=C(O)CCCC2=O)c1=O [I-174] | 5 (90% or more of herbicidal effect and crop phytotoxicity) | 5 (90% or more of herbicidal effect and crop phytotoxicity) | 5 (90% or more of herbicidal effect and crop phytotoxicity)
CCOC(=O)Nn1c(C(F)(F)F)ccc(C(=O)C2=C(O)CCCC2=O)c1=O [I-192] | 5 (90% or more of herbicidal effect and crop phytotoxicity) | 5 (90% or more of herbicidal effect and crop phytotoxicity) | 5 (90% or more of herbicidal effect and crop phytotoxicity)
CC(C)(C)OC(=O)Nn1c(C(F)(F)F)ccc(C(=O)C2=C(O)CCCC2=O)c1=O [I-193] | 5 (90% or more of herbicidal effect and crop phytotoxicity) | 5 (90% or more of herbicidal effect and crop phytotoxicity) | 5 (90% or more of herbicidal effect and crop phytotoxicity)
CN(C(=O)OC(C)(C)C)n1c(C(F)(F)F)ccc(C(=O)C2=C(O)CCCC2=O)c1=O [I-194] | 5 (90% or more of herbicidal effect and crop phytotoxicity) | 5 (90% or more of herbicidal effect and crop phytotoxicity) | 5 (90% or more of herbicidal effect and crop phytotoxicity)
O=C(Nn1c(C(F)(F)F)ccc(C(=O)C2=C(O)CCCC2=O)c1=O)OCc1ccccc1 [I-196] | 4 (70 to less than 90% of herbicidal effect and crop phytotoxicity) | 5 (90% or more of herbicidal effect and crop phytotoxicity) | 5 (90% or more of herbicidal effect and crop phytotoxicity)
CN(C(=O)OCc1ccccc1)n1c(C(F)(F)F)ccc(C(=O)C2=C(O)CCCC2=O)c1=O [I-197] | 5 (90% or more of herbicidal effect and crop phytotoxicity) | 5 (90% or more of herbicidal effect and crop phytotoxicity) | 5 (90% or more of herbicidal effect and crop phytotoxicity)
Cn1c(C(F)(F)Cl)ccc(C(=O)C2=C(O)CCCC2=O)c1=O [I-225] | 5 (90% or more of herbicidal effect and crop phytotoxicity) | 5 (90% or more of herbicidal effect and crop phytotoxicity) | 5 (90% or more of herbicidal effect and crop phytotoxicity)
CC(C)c1ccc(C(=O)C2=C(O)CCCC2=O)c(=O)n1-c1ccccc1 [I-232] | 5 (90% or more of herbicidal effect and crop phytotoxicity) | 5 (90% or more of herbicidal effect and crop phytotoxicity) | 5 (90% or more of herbicidal effect and crop phytotoxicity)
Cc1ccc(C(=O)C2=C(O)CCCC2=O)c(=O)n1-c1cccc(C(F)(F)F)c1 [I-235] | 5 (90% or more of herbicidal effect and crop phytotoxicity) | 5 (90% or more of herbicidal effect and crop phytotoxicity) | 5 (90% or more of herbicidal effect and crop phytotoxicity)
Cc1ccc(C(=O)C2=C(O)CCCC2=O)c(=O)n1-c1ccc(C(F)(F)F)cc1 [I-236] | 5 (90% or more of herbicidal effect and crop phytotoxicity) | 5 (90% or more of herbicidal effect and crop phytotoxicity) | 5 (90% or more of herbicidal effect and crop phytotoxicity)
CC1CCC(=O)C(C(=O)c2ccc(C(F)(F)F)n(C)c2=O)=C1O (stereo not drawn) [II-1] | 5 (90% or more of herbicidal effect and crop phytotoxicity) | 5 (90% or more of herbicidal effect and crop phytotoxicity) | 5 (90% or more of herbicidal effect and crop phytotoxicity)
Cn1c(C(F)(F)F)ccc(C(=O)C2=C(O)C(C)(C)CCC2=O)c1=O [II-2] | 5 (90% or more of herbicidal effect and crop phytotoxicity) | 5 (90% or more of herbicidal effect and crop phytotoxicity) | 5 (90% or more of herbicidal effect and crop phytotoxicity)
Cn1c(C(F)(F)F)ccc(C(=O)C2=C(Sc3ccccc3)CCCC2=O)c1=O [II-8] | 5 (90% or more of herbicidal effect and crop phytotoxicity) | 5 (90% or more of herbicidal effect and crop phytotoxicity) | 5 (90% or more of herbicidal effect and crop phytotoxicity)
Cc1ccc(SC2=C(C(=O)c3ccc(C(F)(F)F)n(C)c3=O)C(=O)CCC2)cc1 [II-9] | 5 (90% or more of herbicidal effect and crop phytotoxicity) | 5 (90% or more of herbicidal effect and crop phytotoxicity) | 5 (90% or more of herbicidal effect and crop phytotoxicity)
